In patent publication US12617779B2, “Self degradation-type CDK9 inhibitor prodrug and liposome encapsulating same” (Sumitomo Pharma Co., Ltd., priority 2021, dated 2026):

Experiment: Evaluation of conversion rate to active form in buffer solution (Experimental Example 1)
Format: physicochemical
Details: for Production rate of Alvocidib / Residual rate: 25 umol/L in buffer solution
Method in brief: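 Stability across pH: 25 umol/L, 37° C, 50 mM citrate/phosphate, pH 5.0–7.4. Sampling at 0, 0.5, 1, 2, 3 h; HPLC determined loss of compound and Alvocidib generated.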

CCCN(C[C@@H]1CCCCN1)C(=O)Oc1cc(O)c2c(=O)cc(-c3ccccc3Cl)oc2c1[C@H]1CCN(C)C[C@H]1O [Example 5, 2-(2-chlorophenyl)-5-hydroxy-8-[(3S,4R)-3-hydroxy-1-methylpiperidin-4-yl]-4-oxo-4H-1-benzopyran-7-yl {[(2S)-piperidin-2-yl]methyl}propylcarbamate]
Efficiency of conversion to Alvocidib (buffer solution, 37° C.): higher efficiency | Production rate of Alvocidib (pH5.0, 0 hr, 37° C.): 0.0% | Residual rate (pH5.0, 0 hr, 37° C.): 98.7% | Stability in buffer solution at pH 5 (pH 5, 37° C., up to 2 or 3 hours): stable | Production rate of Alvocidib (pH5.0, 0.5 hr, 37° C.): 0.6% | Residual rate (pH5.0, 0.5 hr, 37° C.): 98.3% | Production rate of Alvocidib (pH5.0, 1 hr, 37° C.): 1.1% | Residual rate (pH5.0, 1 hr, 37° C.): 97.8% | Production rate of Alvocidib (pH5.0, 2 hr, 37° C.): 2.3% | Residual rate (pH5.0, 2 hr, 37° C.): 96.7% | Production rate of Alvocidib (pH5.0, 3 hr, 37° C.): 3.4% | Residual rate (pH5.0, 3 hr, 37° C.): 95.8% | Production rate of Alvocidib (pH5.5, 0 hr, 37° C.): 0.0% | Residual rate (pH5.5, 0 hr, 37° C.): 98.3% | Production rate of Alvocidib (pH5.5, 0.5 hr, 37° C.): 1.2% | Residual rate (pH5.5, 0.5 hr, 37° C.): 97.2% | Production rate of Alvocidib (pH5.5, 1 hr, 37° C.): 2.1% | Residual rate (pH5.5, 1 hr, 37° C.): 96.4% | Production rate of Alvocidib (pH5.5, 2 hr, 37° C.): 3.9% | Residual rate (pH5.5, 2 hr, 37° C.): 94.5% | Production rate of Alvocidib (pH5.5, 3 hr, 37° C.): 5.7% | Residual rate (pH5.5, 3 hr, 37° C.): 92.7% | Production rate of Alvocidib (pH6.0, 0 hr, 37° C.): 0.0% | Residual rate (pH6.0, 0 hr, 37° C.): 98.7% | Production rate of Alvocidib (pH6.0, 0.5 hr, 37° C.): 3.6% | Residual rate (pH6.0, 0.5 hr, 37° C.): 95.2% | Production rate of Alvocidib (pH6.0, 1 hr, 37° C.): 6.6% | Residual rate (pH6.0, 1 hr, 37° C.): 92.2% | Production rate of Alvocidib (pH6.0, 2 hr, 37° C.): 12.8% | Residual rate (pH6.0, 2 hr, 37° C.): 85.7% | Production rate of Alvocidib (pH6.0, 3 hr, 37° C.): 18.6% | Residual rate (pH6.0, 3 hr, 37° C.): 79.8% | Production rate of Alvocidib (pH6.5, 0 hr, 37° C.): 0.0% | Residual rate (pH6.5, 0 hr, 37° C.): 98.4% | Production rate of Alvocidib (pH6.5, 0.5 hr, 37° C.): 9.5% | Residual rate (pH6.5, 0.5 hr, 37° C.): 88.9% | Production rate of Alvocidib (pH6.5, 1 hr, 37° C.): 17.1% | Residual rate (pH6.5, 1 hr, 37° C.): 80.9% | Production rate of Alvocidib (pH6.5, 2 hr, 37° C.): 32.1% | Residual rate (pH6.5, 2 hr, 37° C.): 65.5% | Production rate of Alvocidib (pH6.5, 3 hr, 37° C.): 44.2% | Residual rate (pH6.5, 3 hr, 37° C.): 52.6% | Production rate of Alvocidib (pH7.0, 0 hr, 37° C.): 0.0% | Residual rate (pH7.0, 0 hr, 37° C.): 98.4% | Production rate of Alvocidib (pH7.0, 0.5 hr, 37° C.): 25.0% | Residual rate (pH7.0, 0.5 hr, 37° C.): 72.7% | Production rate of Alvocidib (pH7.0, 1 hr, 37° C.): 41.9% | Residual rate (pH7.0, 1 hr, 37° C.): 55.0% | Production rate of Alvocidib (pH7.0, 2 hr, 37° C.): 66.7% | Residual rate (pH7.0, 2 hr, 37° C.): 28.7% | Production rate of Alvocidib (pH7.0, 3 hr, 37° C.): 79.9% | Residual rate (pH7.0, 3 hr, 37° C.): 15.0% | Production rate of Alvocidib (pH7.4, 0 hr, 37° C.): 0.0% | Residual rate (pH7.4, 0 hr, 37° C.): 98.7% | Conversion to Alvocidib at pH 7.4 (pH 7.4, 37° C., up to 3 hours): rapidly converted to Alvocidib | Production rate of Alvocidib (pH7.4, 0.5 hr, 37° C.): 47.5% | Residual rate (pH7.4, 0.5 hr, 37° C.): 49.4% | Production rate of Alvocidib (pH7.4, 1 hr, 37° C.): 69.8% | Residual rate (pH7.4, 1 hr, 37° C.): 25.9% | Production rate of Alvocidib (pH7.4, 2 hr, 37° C.): 88.9% | Residual rate (pH7.4, 2 hr, 37° C.): 5.9% | Production rate of Alvocidib (pH7.4, 3 hr, 37° C.): 93.2% | Residual rate (pH7.4, 3 hr, 37° C.): 1.5%
